One block for each compound: values may come before it. The source made the active and inactive calls. No cut-off for these calls is given here. Where a SMILES comes first, the peptide text is derived from it. Bridges are numbered along the chain shown (N, C = ends).
Key:
[1] = biological target: Frizzled-2 (Homo sapiens) (UniProt Q14332); assay: Antagonist activity at Wnt3a-stimulated frizzled-2 (unknown origin) expressed in human HEK293superTOP flash cells incubated for 24 hrs by luciferase reporter gene assay; format: functional, cell-based; details: HEK293
[2] = biological target: Frizzled-1 (Homo sapiens) (UniProt Q9UP38); assay: Antagonist activity at Wnt3a-stimulated frizzled-1 (unknown origin) expressed in human HEK293superTOP flash cells incubated for 24 hrs by luciferase reporter gene assay; format: functional, cell-based; details: HEK293
[3] = biological target: Frizzled-2 (Homo sapiens) (UniProt Q14332); assay: Agonist activity at frizzled-2 (unknown origin) expressed in human HEK293superTOP flash cells by luciferase reporter gene assay; format: functional, cell-based; details: HEK293
[4] = biological target: Frizzled-1 (Homo sapiens) (UniProt Q9UP38); assay: Agonist activity at frizzled-1 (unknown origin) expressed in human HEK293superTOP flash cells by luciferase reporter gene assay; format: functional, cell-based; details: HEK293
[5] = biological target: Frizzled-1 (Rattus norvegicus) (UniProt Q08463); assay: Antagonist activity at Wnt3a-stimulated rat frizzled-1 expressed in CHO cells up to 10 uM incubated for 24 hrs by luciferase reporter gene assay; format: cell-based; details: dose microM <=10, time 24.0 hrs
[6] = biological target: Frizzled-2 (Rattus norvegicus) (UniProt Q08464); assay: Antagonist activity at Wnt3a-stimulated rat frizzled-2 expressed in […] cells up to 10 uM incubated for 24 hrs by luciferase reporter gene assay; format: cell-based; details: dose microM <=10, time 24.0 hrs
[7] = biological target: Frizzled-1 (Rattus norvegicus) (UniProt Q08463); assay: Antagonist activity at Wnt3a-stimulated rat frizzled-1 expressed in African green monkey COS7 cells up to 10 uM incubated for 24 hrs by luciferase reporter gene assay; format: cell-based; details: dose microM <=10, time 24.0 hrs
[8] = biological target: Frizzled-2 (Rattus norvegicus) (UniProt Q08464); assay: Antagonist activity at Wnt3a-stimulated rat frizzled-2 expressed in African green monkey COS7 cells up to 10 uM incubated for 24 hrs by luciferase reporter gene assay; format: cell-based; details: dose microM <=10, time 24.0 hrs
[9] = biological target: Frizzled-1 (Homo sapiens) (UniProt Q9UP38); assay: Antagonist activity at Wnt3a-stimulaed frizzled-1 (unknown origin) expressed in human HEK293superTOP flash cells at 1 nM incubated for 24 hrs by luciferase reporter gene assay (reference value: 0%); format: functional, cell-based; details: HEK293, filed as antagonist
[10] = biological target: Frizzled-2 (Homo sapiens) (UniProt Q14332); assay: Antagonist activity at Wnt3a-stimulaed frizzled-2 (unknown origin) expressed in human HEK293superTOP flash cells at 1 nM incubated for 24 hrs by luciferase reporter gene assay (reference value: 0%); format: functional, cell-based; details: HEK293, filed as antagonist
[11] = biological target: Frizzled-2 (Homo sapiens) (UniProt Q14332); assay: Antagonist activity at Wnt3a-stimulated frizzled-2 (unknown origin) expressed in human HEK293superTOP flash cells at 10 nM incubated for 24 hrs by luciferase reporter gene assay; format: functional, cell-based; details: HEK293
[12] = biological target: Frizzled-1 (Homo sapiens) (UniProt Q9UP38); assay: Antagonist activity at Wnt3a-stimulated frizzled-1 (unknown origin) expressed in human HEK293superTOP flash cells at 10 nM incubated for 24 hrs by luciferase reporter gene assay; format: functional, cell-based; details: HEK293
[13] = biological target: T1, Frizzled-4 (Homo sapiens) (UniProt Q9ULV1); assay: Agonist activity at frizzled-4 (unknown origin) expressed in human HEK293superTOP flash cells by luciferase reporter gene assay; format: functional, cell-based; details: HEK293
T1 sequence (whole entry): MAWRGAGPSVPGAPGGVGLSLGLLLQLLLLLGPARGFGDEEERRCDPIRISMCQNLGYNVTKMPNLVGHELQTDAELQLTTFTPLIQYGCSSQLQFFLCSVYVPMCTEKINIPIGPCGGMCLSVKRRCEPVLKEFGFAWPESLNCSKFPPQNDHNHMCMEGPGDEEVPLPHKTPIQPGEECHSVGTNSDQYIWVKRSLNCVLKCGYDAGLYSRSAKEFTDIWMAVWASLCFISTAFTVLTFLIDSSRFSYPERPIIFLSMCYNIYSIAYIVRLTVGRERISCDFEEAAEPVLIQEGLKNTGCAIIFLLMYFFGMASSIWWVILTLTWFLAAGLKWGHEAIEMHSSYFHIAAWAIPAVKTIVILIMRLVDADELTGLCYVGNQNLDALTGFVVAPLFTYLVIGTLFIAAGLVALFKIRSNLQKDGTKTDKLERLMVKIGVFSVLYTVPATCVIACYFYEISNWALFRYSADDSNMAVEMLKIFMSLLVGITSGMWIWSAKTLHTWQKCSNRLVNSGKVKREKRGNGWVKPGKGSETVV

[14] = biological target: Frizzled-5 (Homo sapiens) (UniProt Q13467); assay: Agonist activity at frizzled-5 (unknown origin) expressed in human HEK293superTOP flash cells by luciferase reporter gene assay; format: functional, cell-based; details: HEK293
[15] = biological target: Frizzled-1 (Rattus norvegicus) (UniProt Q08463); assay: Agonist activity at rat frizzled-1 expressed in human HEK293superTOP flash cells by luciferase reporter gene assay; format: cell-based; details: HEK293
[16] = biological target: Frizzled-2 (Rattus norvegicus) (UniProt Q08464); assay: Agonist activity at rat frizzled-2 expressed in human HEK293superTOP flash cells by luciferase reporter gene assay; format: cell-based; details: HEK293
[17] = biological target: Frizzled-1 (Rattus norvegicus) (UniProt Q08463); assay: Antagonist activity at Wnt3a-stimulated rat frizzled-1 expressed in human HEK293superTOP flash cells at 10 nM incubated for 24 hrs by luciferase reporter gene assay relative to control; format: cell-based; details: HEK293, filed as antagonist
[18] = biological target: Frizzled-2 (Rattus norvegicus) (UniProt Q08464); assay: Antagonist activity at Wnt3a-stimulated rat frizzled-2 expressed in human HEK293superTOP flash cells at 10 nM incubated for 24 hrs by luciferase reporter gene assay relative to control; format: cell-based; details: HEK293, filed as antagonist
[19] = biological target: Frizzled-1 (Rattus norvegicus) (UniProt Q08463); assay: Antagonist activity at Wnt3a-stimulated rat frizzled-1 expressed in CHO cells incubated for 24 hrs by luciferase reporter gene assay relative to control; format: cell-based; details: filed as antagonist, concentration not given here
[20] = biological target: Frizzled-2 (Rattus norvegicus) (UniProt Q08464); assay: Antagonist activity at Wnt3a-stimulated rat frizzled-2 expressed in CHO cells incubated for 24 hrs by luciferase reporter gene assay relative to control; format: cell-based; details: filed as antagonist, concentration not given here
[21] = biological target: Frizzled-1 (Rattus norvegicus) (UniProt Q08463); assay: Antagonist activity at Wnt3a-stimulated rat frizzled-1 expressed in African green monkey COS7 cells incubated for 24 hrs by luciferase reporter gene assay relative to control; format: cell-based; details: filed as antagonist, concentration not given here
[22] = biological target: Frizzled-2 (Rattus norvegicus) (UniProt Q08464); assay: Antagonist activity at Wnt3a-stimulated rat frizzled-2 expressed in African green monkey COS7 cells incubated for 24 hrs by luciferase reporter gene assay relative to control; format: cell-based; details: filed as antagonist, concentration not given here
[23] = biological target: Frizzled-1 (Rattus norvegicus) (UniProt Q08463); assay: Agonist activity at rat frizzled-1 expressed in CHO cells by luciferase reporter gene assay; format: cell-based
[24] = biological target: Frizzled-2 (Rattus norvegicus) (UniProt Q08464); assay: Agonist activity at rat frizzled-2 expressed in CHO cells by luciferase reporter gene assay; format: cell-based
[25] = biological target: Frizzled-1 (Rattus norvegicus) (UniProt Q08463); assay: Agonist activity at rat frizzled-1 expressed in African green monkey COS7 cells by luciferase reporter gene assay; format: cell-based
[26] = biological target: Frizzled-2 (Rattus norvegicus) (UniProt Q08464); assay: Agonist activity at rat frizzled-2 expressed in African green monkey COS7 cells by luciferase reporter gene assay; format: cell-based

Sequence of Frizzled-1 (Rattus norvegicus) (Q08463 whole entry): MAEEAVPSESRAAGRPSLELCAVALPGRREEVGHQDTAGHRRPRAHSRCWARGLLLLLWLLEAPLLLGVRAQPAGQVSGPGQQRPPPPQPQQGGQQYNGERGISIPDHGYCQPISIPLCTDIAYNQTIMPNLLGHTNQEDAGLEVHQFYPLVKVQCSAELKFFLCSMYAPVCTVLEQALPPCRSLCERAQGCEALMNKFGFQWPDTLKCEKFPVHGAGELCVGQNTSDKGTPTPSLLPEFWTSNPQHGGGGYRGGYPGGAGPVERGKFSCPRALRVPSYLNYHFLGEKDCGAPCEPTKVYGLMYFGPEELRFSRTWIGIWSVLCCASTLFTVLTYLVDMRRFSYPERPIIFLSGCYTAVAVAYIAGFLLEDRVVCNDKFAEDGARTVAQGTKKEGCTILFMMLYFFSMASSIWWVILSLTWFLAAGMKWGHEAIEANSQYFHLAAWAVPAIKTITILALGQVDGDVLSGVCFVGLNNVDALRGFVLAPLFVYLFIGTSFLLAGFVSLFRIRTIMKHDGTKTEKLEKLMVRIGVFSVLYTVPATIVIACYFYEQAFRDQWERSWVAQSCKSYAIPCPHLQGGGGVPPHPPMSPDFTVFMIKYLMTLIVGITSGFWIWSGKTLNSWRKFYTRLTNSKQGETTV
Sequence of Frizzled-2 (Rattus norvegicus) (Q08464 29-570 limits assumed): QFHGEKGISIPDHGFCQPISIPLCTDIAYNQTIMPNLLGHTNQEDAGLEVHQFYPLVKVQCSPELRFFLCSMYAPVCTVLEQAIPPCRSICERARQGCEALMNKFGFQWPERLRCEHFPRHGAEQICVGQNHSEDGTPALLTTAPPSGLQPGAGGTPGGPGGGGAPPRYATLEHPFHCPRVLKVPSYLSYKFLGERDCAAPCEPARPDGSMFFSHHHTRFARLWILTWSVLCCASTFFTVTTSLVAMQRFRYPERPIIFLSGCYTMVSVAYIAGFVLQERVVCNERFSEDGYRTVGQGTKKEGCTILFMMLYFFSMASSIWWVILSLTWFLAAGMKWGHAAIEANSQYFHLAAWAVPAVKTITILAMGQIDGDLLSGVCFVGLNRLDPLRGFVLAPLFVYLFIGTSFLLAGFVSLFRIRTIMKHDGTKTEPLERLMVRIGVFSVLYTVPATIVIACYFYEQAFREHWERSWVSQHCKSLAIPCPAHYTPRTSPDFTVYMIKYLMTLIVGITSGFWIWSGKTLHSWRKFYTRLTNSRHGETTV
Sequence of Frizzled-2 (Homo sapiens) (Q14332 24-565 limits assumed): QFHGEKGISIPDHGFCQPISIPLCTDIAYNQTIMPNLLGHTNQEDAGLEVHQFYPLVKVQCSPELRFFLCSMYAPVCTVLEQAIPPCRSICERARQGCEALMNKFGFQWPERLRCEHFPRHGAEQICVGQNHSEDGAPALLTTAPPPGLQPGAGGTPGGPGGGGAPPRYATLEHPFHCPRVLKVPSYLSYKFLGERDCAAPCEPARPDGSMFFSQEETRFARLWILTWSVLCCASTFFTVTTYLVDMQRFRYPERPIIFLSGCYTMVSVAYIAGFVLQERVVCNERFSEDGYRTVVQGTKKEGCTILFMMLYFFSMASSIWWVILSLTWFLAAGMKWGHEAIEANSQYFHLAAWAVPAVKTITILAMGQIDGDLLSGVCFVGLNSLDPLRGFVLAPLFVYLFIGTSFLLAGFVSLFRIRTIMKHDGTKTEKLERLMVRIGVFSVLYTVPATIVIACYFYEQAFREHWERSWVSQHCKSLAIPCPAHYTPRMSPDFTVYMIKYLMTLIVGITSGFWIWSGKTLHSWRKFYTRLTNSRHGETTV
Sequence of Frizzled-1 (Homo sapiens) (Q9UP38 70-647 limits assumed): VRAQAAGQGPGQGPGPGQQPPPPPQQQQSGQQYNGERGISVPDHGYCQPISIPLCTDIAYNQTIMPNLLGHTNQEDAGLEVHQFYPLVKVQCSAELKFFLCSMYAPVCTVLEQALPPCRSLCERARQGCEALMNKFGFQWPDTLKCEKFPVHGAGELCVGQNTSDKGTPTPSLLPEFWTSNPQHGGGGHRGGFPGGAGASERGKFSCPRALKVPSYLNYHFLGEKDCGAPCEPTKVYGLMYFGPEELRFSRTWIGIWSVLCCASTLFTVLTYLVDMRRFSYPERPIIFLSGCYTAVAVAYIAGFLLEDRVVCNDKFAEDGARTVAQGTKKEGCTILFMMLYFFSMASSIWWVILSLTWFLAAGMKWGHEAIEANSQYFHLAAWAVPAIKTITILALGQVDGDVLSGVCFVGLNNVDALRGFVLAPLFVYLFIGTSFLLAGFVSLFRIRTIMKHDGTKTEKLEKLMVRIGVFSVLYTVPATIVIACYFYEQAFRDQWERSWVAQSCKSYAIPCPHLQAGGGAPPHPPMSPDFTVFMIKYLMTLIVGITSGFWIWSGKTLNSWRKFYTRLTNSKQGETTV
Sequence of Frizzled-5 (Homo sapiens) (Q13467 whole entry): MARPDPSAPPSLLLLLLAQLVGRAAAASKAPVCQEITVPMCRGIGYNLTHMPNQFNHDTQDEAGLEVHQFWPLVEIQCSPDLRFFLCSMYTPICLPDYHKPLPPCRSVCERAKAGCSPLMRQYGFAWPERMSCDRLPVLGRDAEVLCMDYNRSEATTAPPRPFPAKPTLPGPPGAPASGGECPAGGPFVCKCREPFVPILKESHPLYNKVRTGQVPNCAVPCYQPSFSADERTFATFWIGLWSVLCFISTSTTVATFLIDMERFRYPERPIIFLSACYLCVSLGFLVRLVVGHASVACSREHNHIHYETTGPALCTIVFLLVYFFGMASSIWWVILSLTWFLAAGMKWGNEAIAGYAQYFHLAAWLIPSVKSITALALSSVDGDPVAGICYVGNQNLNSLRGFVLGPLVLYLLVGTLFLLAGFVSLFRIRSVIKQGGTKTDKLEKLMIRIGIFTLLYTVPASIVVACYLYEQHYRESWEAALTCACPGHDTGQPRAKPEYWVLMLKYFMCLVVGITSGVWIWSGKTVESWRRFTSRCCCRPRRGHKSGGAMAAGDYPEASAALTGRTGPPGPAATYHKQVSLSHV

SMILES: CC(=O)N[C@@H](CS)C(=O)N[C@@H](CCCCN)C(=O)N[C@@H](CS)C(=O)N[C@@H](Cc1cnc[nH]1)C(=O)NCC(=O)N[C@H](C(=O)N[C@@H](CO)C(=O)NCC(=O)N[C@@H](CO)C(=O)N[C@@H](CS)C(=O)N[C@H](C(=O)N[C@H](C(=O)N[C@@H](CCCCN)C(=O)N[C@H](C(=O)N[C@@H](CS)C(=O)N[C@@H](Cc1c[nH]c2ccccc12)C(N)=O)[C@@H](C)O)C(C)C)[C@@H](C)O)C(C)C (Ac-CKCHGVSGSCTVKTCW-NH2)
- inhibition [1]: inactive
- inhibition [2]: inactive
- Activity [3]: inactive
- Activity [4]: inactive

SMILES: CSCC[C@@H]1NC(=O)CNC(=O)[C@H](CCC(=O)O)NC(=O)[C@H](CO)NC(=O)[C@H]([C@@H](C)O)NC(=O)[C@H](CCCCN)NC(=O)[C@H](CC(N)=O)NC(=O)[C@@H](NC(C)=O)CSSC[C@@H](C(=O)N[C@@H](CCC(=O)O)C(=O)N[C@@H](CC(C)C)C(N)=O)NC(=O)CNC(=O)[C@H](CC(=O)O)NC1=O (Ac-CNKTSEGMDGCEL-NH2; disulfide 1-11)
- Activity [13]: inactive
- Activity [14]: inactive

SMILES: CC[C@H](C)[C@H](NC(=O)CNC(C)=O)C(=O)N[C@@H](CCCCN)C(=O)N[C@@H](CCC(=O)O)C(=O)N[C@@H](CS)C(=O)N[C@@H](CCC(N)=O)C(=O)N[C@@H](Cc1ccc(O)cc1)C(=O)N[C@@H](CCC(N)=O)C(=O)N[C@@H](Cc1ccccc1)C(=O)N[C@@H](CCCNC(=N)N)C(=O)N[C@@H](Cc1c[nH]cn1)C(=O)N[C@@H](CCCNC(=N)N)C(=O)N[C@@H](CCCNC(=N)N)C(=O)N[C@@H](Cc1c[nH]c2ccccc12)C(=O)N[C@@H](CC(N)=O)C(=O)N[C@@H](CS)C(=O)N[C@@H](CO)C(=O)N[C@H](C(=O)N[C@H](C(=O)N[C@@H](CC(=O)O)C(N)=O)C(C)C)[C@@H](C)O (Ac-GIKECQYQFRHRRWNCSTVD-NH2)
- Activity [15]: inactive
- Activity [16]: inactive
- inhibition [17]: 100%
- inhibition [18]: 100%
- inhibition [19]: 100%
- inhibition [20]: 100%
- inhibition [21]: 100%
- inhibition [22]: 100%
- Activity [23]: inactive
- Activity [24]: inactive
- Activity [25]: inactive
- Activity [26]: inactive

SMILES: CC[C@H](C)[C@H](NC(C)=O)C(=O)N[C@@H](CCC(=O)O)C(=O)N[C@@H](CCC(=O)O)C(=O)N[C@@H](CS)C(=O)N[C@@H](CCC(N)=O)C(=O)N[C@@H](Cc1cnc[nH]1)C(=O)N[C@@H](CCC(N)=O)C(=O)N[C@@H](Cc1ccccc1)C(=O)N[C@@H](CCCNC(=N)N)C(=O)N[C@@H](CC(=O)O)C(=O)N[C@@H](CCCNC(=N)N)C(=O)N[C@@H](CCCNC(=N)N)C(=O)N[C@@H](Cc1c[nH]c2ccccc12)C(=O)N[C@@H](CC(N)=O)C(=O)N[C@@H](CS)C(N)=O (Ac-IEECQHQFRDRRWNC-NH2)
- inhibition [1]: inactive
- inhibition [2]: inactive
- Activity [3]: inactive
- Activity [4]: inactive

Further lines, results first:

- inhibition [1]: inactive
- inhibition [2]: inactive
- Activity [3]: inactive
- Activity [4]: inactive
SMILES: CSCC[C@H](NC(=O)CNC(=O)[C@H](CO)NC(=O)[C@H](CCCCN)NC(=O)[C@H](CC(N)=O)NC(=O)[C@H](CS)NC(C)=O)C(=O)N[C@@H](CC(=O)O)C(=O)NCC(=O)N[C@@H](CS)C(=O)N[C@@H](CCC(=O)O)C(=O)N[C@@H](CC(C)C)C(N)=O (Ac-CNKSGMDGCEL-NH2)

- inhibition [5]: inactive
- inhibition [6]: inactive
- inhibition [7]: inactive
- inhibition [8]: inactive
- inhibition [9]: 65.9%
- inhibition [10]: 85.5%
- inhibition [11]: inactive
- inhibition [12]: inactive
SMILES: CSCC[C@H](NC(=O)CNC(=O)[C@H](CCC(=O)O)NC(=O)[C@H](CO)NC(=O)[C@@H](NC(=O)[C@H](CCCCN)NC(=O)[C@H](CC(N)=O)NC(=O)[C@H](CS)NC(C)=O)[C@@H](C)O)C(=O)N[C@@H](CC(=O)O)C(=O)NCC(=O)N[C@@H](CS)C(=O)N[C@@H](C)C(=O)N[C@@H](CC(C)C)C(N)=O (Ac-CNKTSEGMDGCAL-NH2)

- inhibition [5]: inactive
- inhibition [6]: inactive
- inhibition [7]: inactive
- inhibition [8]: inactive
- inhibition [9]: 65.9%
- inhibition [10]: 86.5%
- inhibition [11]: inactive
- inhibition [12]: inactive
SMILES: CSCC[C@H](NC(=O)CNC(=O)[C@H](CCC(=O)O)NC(=O)[C@H](CO)NC(=O)[C@@H](NC(=O)[C@H](CCCCN)NC(=O)[C@H](CC(N)=O)NC(=O)[C@H](CS)NC(C)=O)[C@@H](C)O)C(=O)N[C@@H](CC(=O)O)C(=O)NCC(=O)N[C@@H](CS)C(=O)N[C@@H](CCC(=O)O)C(=O)N[C@@H](C)C(N)=O (Ac-CNKTSEGMDGCEA-NH2)

From ChEMBL document CHEMBL4806963, “Antagonistic peptides for frizzled-1 and frizzled-2” (2013)
